# Laboratory results as given in ChEMBL document CHEMBL5260848, “Recent advancements in the development of bioactive pyrazoline derivatives” (Eur J Med Chem, 2020).
# Counter-ions that a name gives are not always drawn.
# Legend:
# Acetylcholinesterase = Acetylcholinesterase (Homo sapiens, UniProt P22303)
# [1] = Antioxidant activity assessed as DPPH radical scavenging activity; format: functional
# Candida albicans [2] = assay: Antifungal activity against Candida albicans by agar dilution method; format: functional
# Aspergillus clavatus = assay: Antifungal activity against Aspergillus clavatus; format: functional
# Candida albicans [3] = assay: Antifungal activity against Candida albicans; format: functional
# Aspergillus niger = assay: Antifungal activity against Aspergillus niger; format: functional
# Mus musculus = assay: Antidiabetic activity against albino mouse assessed as reduction in blood glucose level at 0.2 mmol/Kg relative to control; format: functional; design: scale not given: the % may be the effect or the level left
# Staphylococcus aureus = assay: microbe, parasite or virus in culture
# [4] = Cytotoxicity against human HPC cells assessed as reduction in cell viability incubated for 48 hrs by MTT assay; format: functional
# [5] = Cytotoxicity against human HPLF cells assessed as reduction in cell viability incubated for 48 hrs by MTT assay; format: functional
# HSC-2 = assay: Cytotoxicity against human HSC-2 cells assessed as reduction in cell viability incubated for 48 hrs by MTT assay; format: functional
# [6] = Cytotoxicity against human HGF cells assessed as reduction in cell viability incubated for 48 hrs by MTT assay; format: functional
# Ca9-22 = assay: Cytotoxicity against human Ca9-22 cells assessed as reduction in cell viability incubated for 48 hrs by MTT assay; format: functional
# Carbonic anhydrase 9 [7] = biological target: T1, Carbonic anhydrase 9 (Homo sapiens, UniProt Q16790); assay: Inhibition of human CA9 preincubated for 15 mins by phenol red dye based stopped flow CO2 hydration assay
# Carbonic anhydrase 12 = Carbonic anhydrase 12 (Homo sapiens, UniProt O43570); assay: Inhibition of human CA12 preincubated for 15 mins by phenol red dye based stopped flow CO2 hydration assay
# HSC-3 = assay: Cytotoxicity against human HSC-3 cells assessed as reduction in cell viability incubated for 48 hrs by MTT assay; format: functional
# MCF7 = assay: Cytotoxicity against human MCF7 cells; format: functional, cell-based
# [8] = Growth inhibition of human Panel NCI-58 (58 carcinoma cell lines) cells by SRB method; format: functional
# [9] = Cytotoxicity against human Panel NCI-58 (58 carcinoma cell lines) cells by SRB method; format: functional; settings: read-out: LC50 (the source's name)
# Plasmodium falciparum = assay: Antimalarial activity against chloroquine-sensitive Plasmodium falciparum NF54 measured after 72 hrs by giemsa staining based analysis; format: functional, organism-based; settings: NF54, 72 h
# Carbonic anhydrase 1 = Carbonic anhydrase 1 (Homo sapiens, UniProt P00915)
# Carbonic anhydrase 9 [10] = biological target: T1, Carbonic anhydrase 9; assay: Inhibition of human CA9
# Carbonic anhydrase 2 = Carbonic anhydrase 2 (Homo sapiens, UniProt P00918)
# Candida albicans [11] = assay: Antifungal activity against Candida albicans assessed as reduction in microbial growth; format: functional
# [12] = Cytotoxicity against human Panel NCI-58 (58 carcinoma cell lines) cells; format: functional
# Cryptococcus neoformans = assay: Antifungal activity against Cryptococcus neoformans assessed as reduction in microbial growth; format: functional
# Carbonic anhydrase 1, sequence (P00915 whole entry): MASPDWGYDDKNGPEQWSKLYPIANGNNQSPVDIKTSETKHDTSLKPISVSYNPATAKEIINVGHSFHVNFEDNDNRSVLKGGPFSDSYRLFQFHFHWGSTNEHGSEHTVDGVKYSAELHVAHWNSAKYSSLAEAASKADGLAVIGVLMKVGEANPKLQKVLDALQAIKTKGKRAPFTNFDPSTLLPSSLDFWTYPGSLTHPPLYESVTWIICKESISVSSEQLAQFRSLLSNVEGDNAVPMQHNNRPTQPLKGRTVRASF
# Acetylcholinesterase, sequence (P22303 whole entry): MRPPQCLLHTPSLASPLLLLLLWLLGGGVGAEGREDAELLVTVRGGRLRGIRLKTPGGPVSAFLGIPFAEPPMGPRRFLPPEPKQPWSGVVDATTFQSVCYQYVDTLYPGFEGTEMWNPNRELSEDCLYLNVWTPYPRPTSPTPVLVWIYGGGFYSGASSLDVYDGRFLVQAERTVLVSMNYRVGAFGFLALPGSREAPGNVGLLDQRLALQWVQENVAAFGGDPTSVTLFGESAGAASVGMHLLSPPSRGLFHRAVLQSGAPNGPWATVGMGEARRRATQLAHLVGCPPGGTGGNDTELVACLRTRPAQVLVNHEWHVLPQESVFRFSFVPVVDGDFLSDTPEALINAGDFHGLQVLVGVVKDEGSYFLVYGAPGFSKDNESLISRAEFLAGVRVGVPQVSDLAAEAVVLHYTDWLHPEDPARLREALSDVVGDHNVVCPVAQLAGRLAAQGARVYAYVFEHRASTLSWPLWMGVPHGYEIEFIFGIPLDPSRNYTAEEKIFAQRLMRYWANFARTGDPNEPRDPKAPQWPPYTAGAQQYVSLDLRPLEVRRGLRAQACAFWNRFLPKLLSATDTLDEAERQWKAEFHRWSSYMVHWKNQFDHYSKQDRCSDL
# Carbonic anhydrase 12, sequence (O43570 whole entry): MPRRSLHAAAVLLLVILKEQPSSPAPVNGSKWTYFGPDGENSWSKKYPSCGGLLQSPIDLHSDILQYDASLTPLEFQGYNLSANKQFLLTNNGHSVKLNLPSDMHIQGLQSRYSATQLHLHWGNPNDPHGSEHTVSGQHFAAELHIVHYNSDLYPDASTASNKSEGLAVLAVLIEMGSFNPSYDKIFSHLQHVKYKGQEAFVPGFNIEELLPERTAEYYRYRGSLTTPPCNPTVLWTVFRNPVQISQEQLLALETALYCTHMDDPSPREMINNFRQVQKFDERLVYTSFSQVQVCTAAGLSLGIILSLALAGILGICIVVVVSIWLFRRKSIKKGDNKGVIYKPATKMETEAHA
smiles,measurement,setting,value
COc1ccc(C2CC(c3ccc(F)cc3)=NN2c2ccc(S(N)(=O)=O)cc2)c(OC)c1 (centres undefined),Ki,Acetylcholinesterase,0.0377 µM
COc1ccc2cc(C3CC(c4cc(Br)ccc4O)=NO3)c3nnnn3c2c1 (centres undefined),IC50,[1],23.3 µg/mL
same,MIC,Candida albicans [2],25 µg/mL
O=C(c1ccncc1)N1N=C(c2cccc([N+](=O)[O-])c2)CC1c1cc2ccccc2nc1Cl (centres undefined),MIC,Aspergillus clavatus,12.5 µg/mL
same,MIC,Candida albicans [3],12.5 µg/mL
same,MIC,Aspergillus niger,12.5 µg/mL
Cc1ccc2cc(C3CC(c4cc(Br)ccc4O)=NN3)c3nnnn3c2c1 (centres undefined),MIC,Candida albicans [2],25 µg/mL
O=C(NC1CCCCC1)NS(=O)(=O)c1ccc(N2N=C(c3ccc(Br)cc3)CC2c2ccc(F)cc2)cc1 (centres undefined),Activity,Mus musculus,16%
COc1ccc(C2CC(c3ccc(F)cc3)=NN2c2ccc(S(N)(=O)=O)cc2)cc1OC (centres undefined),Ki,Acetylcholinesterase,0.0377 µM
CCOC(=O)C1N=NN(CC(=O)N2N=C(c3nnn(Cc4ccccc4)c3C)CC2c2cccs2)C1C(=O)OCC (centres undefined),MIC,Staphylococcus aureus,3.9 µg/mL
Cc1ccc(C2=NN(c3ccc(S(=O)(=O)NC(=O)Nc4ccccc4)cc3)C(c3ccc(F)cc3)C2)cc1 (centres undefined),Activity,Mus musculus,16%
NS(=O)(=O)c1ccc(N2N=C(c3ccc(O)cc3)CC2c2ccc(Cl)cc2Cl)cc1 (centres undefined),CC50,[4],39.3 µM
same,CC50,[5],39.3 µM
same,CC50,HSC-2,39.3 µM
same,CC50,[6],39.3 µM
same,CC50,Ca9-22,39.3 µM
same,Ki,Carbonic anhydrase 9 [7],0.0535 µM
same,Ki,Carbonic anhydrase 12,0.0062 µM
same,CC50,HSC-3,39.3 µM
O=C(Nc1ccc(Cl)cc1)NS(=O)(=O)c1ccc(N2N=C(c3ccc(Br)cc3)CC2c2ccc(F)cc2)cc1 (centres undefined),Activity,Mus musculus,16%
CN1N=C2C(C[C@H]3[C@@H]4CCc5cc(O)ccc5[C@H]4CC[C@]23C)C1c1ccc(Br)cc1 (some centres undefined),IC50,MCF7,0.043 µM
C[C@]12CC[C@@H]3c4ccc(O)cc4CC[C@H]3[C@@H]1CC1C2=NN(c2ccccc2)C1c1ccc(Br)cc1 (some centres undefined),IC50,MCF7,0.043 µM
CN1N=C2C(C[C@H]3[C@@H]4CCc5cc(O)ccc5[C@H]4CC[C@]23C)C1c1cccs1 (some centres undefined),IC50,MCF7,0.043 µM
COc1ccc(C2CC(c3ccc(Br)cc3)=NN2c2ccc(S(N)(=O)=O)cc2)c(OC)c1 (centres undefined),Ki,Acetylcholinesterase,0.0377 µM
COC(=O)C1N=NN(CC(=O)N2N=C(c3ccccc3)CC2c2ccc(OC)cc2)C1C(=O)OC (centres undefined),MIC,Staphylococcus aureus,3.9 µg/mL
OCCNc1nc(NCCO)nc(Nc2ccc(C3=NN(c4cc(Cl)cc(Cl)c4)C(c4ccc(C(F)(F)F)cc4)C3)cc2)n1 (centres undefined),GI50,[8],0.569 µM
same,CC50,[9],5.15 µM
COc1cc(C)c(/C=C/C(=O)c2cc(OC)c(OC)c(OC)c2)cc1C(C)C,IC50,Plasmodium falciparum,< 2 µM
Cc1ccc(C2=NN(c3ccc(S(=O)(=O)NC(=O)Nc4ccc(Cl)cc4)cc3)C(c3ccc(F)cc3)C2)cc1 (centres undefined),Activity,Mus musculus,16%
COc1ccc2c(c1)cc(C1CC(c3cc(Br)ccc3O)=NO1)c1nnnn12 (centres undefined),IC50,[1],26.5 µg/mL
COc1ccc(C2=NN(C(=O)c3ccc(S(N)(=O)=O)cc3)C(c3ccc(OC)cc3)C2)cc1 (centres undefined),Ki,Carbonic anhydrase 1,0.0878 µM
same,Ki,Carbonic anhydrase 9 [10],0.0055 µM
same,Ki,Carbonic anhydrase 2,0.0317 µM
COc1cc(C2CC(c3ccc(Nc4nc(NCCO)nc(NCCO)n4)cc3)=NN2c2cc(Cl)cc(Cl)c2)cc(OC)c1OC (centres undefined),GI50,[8],0.569 µM
same,CC50,[9],5.15 µM
O=C(Nc1ccccc1)NS(=O)(=O)c1ccc(N2N=C(c3ccc(Br)cc3)CC2c2ccc(F)cc2)cc1 (centres undefined),Activity,Mus musculus,16%
COc1cc(C)c(/C=C/C(=O)c2ccc(Br)cc2)cc1C(C)C,IC50,Plasmodium falciparum,< 2 µM
NS(=O)(=O)c1ccc(N2N=C(c3ccc(O)cc3)CC2c2ccc(Cl)cc2)cc1 (centres undefined),CC50,[4],39.3 µM
same,CC50,[5],39.3 µM
same,CC50,HSC-2,39.3 µM
same,CC50,[6],39.3 µM
same,CC50,Ca9-22,39.3 µM
same,Ki,Carbonic anhydrase 9 [7],0.0535 µM
same,Ki,Carbonic anhydrase 12,0.0062 µM
same,CC50,HSC-3,39.3 µM
COc1ccc(C2CC(c3cccc(Nc4ccnc5cc(Cl)ccc45)c3)=NN2c2ccc(Cl)cc2)cc1 (centres undefined),MIC50,Candida albicans [11],3.9 µg/mL
same,GI50,[12],< 1 µM
same,MIC50,Cryptococcus neoformans,< 3.9 µg/mL
same,MIC,Cryptococcus neoformans; read-out: MIC100,< 3.9 µg/mL
COc1cccc2c1C(=O)c1c(O)c3c(c(O)c1C2=O)C[C@@](O)(C(=O)CO)C[C@@H]3O[C@H]1C[C@H](N)[C@H](O)[C@H](C)O1 [DOXORUBICIN HYDROCHLORIDE],GI50,[12],0.02 µM
O=C(c1ccncc1)N1N=C(c2ccc(Br)cc2)CC1c1cc2ccccc2nc1Cl (centres undefined),MIC,Aspergillus clavatus,50 µg/mL
same,MIC,Candida albicans [3],12.5 µg/mL
same,MIC,Aspergillus niger,12.5 µg/mL
COc1ccc(C2CC(c3ccc(O)cc3)=NN2c2ccc(S(N)(=O)=O)cc2)cc1 (centres undefined),CC50,[4],39.3 µM
same,CC50,[5],39.3 µM
same,CC50,HSC-2,39.3 µM
same,CC50,[6],39.3 µM
same,CC50,Ca9-22,39.3 µM
same,Ki,Carbonic anhydrase 9 [7],0.0535 µM
same,Ki,Carbonic anhydrase 12,0.0062 µM
same,CC50,HSC-3,39.3 µM
COc1ccc(C2=NN(C(=O)c3ccc(S(N)(=O)=O)cc3)C(c3ccc(OC)c(OC)c3)C2)c(OC)c1 (centres undefined),Ki,Carbonic anhydrase 1,2.67 µM
same,Ki,Carbonic anhydrase 9 [10],0.0055 µM
O=C(c1ccncc1)N1N=C(c2ccccc2Cl)CC1c1cc2ccccc2nc1Cl (centres undefined),MIC,Aspergillus clavatus,12.5 µg/mL
same,MIC,Candida albicans [3],12.5 µg/mL
same,MIC,Aspergillus niger,12.5 µg/mL
COc1cc(C2CC(c3cccc(Nc4ccnc5cc(Cl)ccc45)c3)=NN2c2ccc(Cl)cc2)cc(OC)c1OC (centres undefined),MIC50,Candida albicans [11],3.9 µg/mL
same,GI50,[12],< 1 µM
same,MIC50,Cryptococcus neoformans,3.9 µg/mL
COC(=O)C1N=NN(CC(=O)N2N=C(c3nnn(Cc4ccccc4)c3C)CC2c2ccc(OC)cc2)C1C(=O)OC (centres undefined),MIC,Staphylococcus aureus,3.9 µg/mL
COc1ccc(C2CC(c3ccccc3)=NN2c2ccc(S(N)(=O)=O)cc2)c(OC)c1 (centres undefined),Ki,Acetylcholinesterase,0.0377 µM
C[C@]12CC[C@@H]3c4ccc(O)cc4CC[C@H]3[C@@H]1CC1C2=NN(c2ccccc2)C1c1cccs1 (some centres undefined),IC50,MCF7,0.043 µM
COC(=O)C1N=NN(CC(=O)N2N=C(c3nnn(Cc4ccccc4)c3C)CC2c2cccs2)C1C(=O)OC (centres undefined),MIC,Staphylococcus aureus,3.9 µg/mL
NS(=O)(=O)c1ccc(N2N=C(c3ccc(O)cc3)CC2c2ccc(F)cc2)cc1 (centres undefined),CC50,[4],39.3 µM
same,CC50,[5],39.3 µM
same,CC50,HSC-2,39.3 µM
same,CC50,[6],39.3 µM
same,CC50,Ca9-22,39.3 µM
same,Ki,Carbonic anhydrase 9 [7],0.0535 µM
same,Ki,Carbonic anhydrase 12,0.0062 µM
same,CC50,HSC-3,39.3 µM
Cc1ccc(C2=NN(c3ccc(S(=O)(=O)NC(=O)NC4CCCCC4)cc3)C(c3ccc(F)cc3)C2)cc1 (centres undefined),Activity,Mus musculus,16%
COc1ccc2c(c1)cc(/C=C/C(=O)c1cc(Br)ccc1O)c1nnnn12,IC50,[1],25.4 µg/mL
OCCNc1nc(NCCO)nc(Nc2ccc(C3=NN(c4cc(Cl)cc(Cl)c4)C(c4ccc(Cl)cc4)C3)cc2)n1 (centres undefined),GI50,[8],0.569 µM
same,CC50,[9],5.15 µM
COc1cc(C2CC(c3ccc(Nc4ccnc5cc(Cl)ccc45)cc3)=NN2c2ccc(Cl)cc2)cc(OC)c1OC (centres undefined),MIC50,Candida albicans [11],3.9 µg/mL
same,GI50,[12],< 1 µM
same,MIC50,Cryptococcus neoformans,3.9 µg/mL
NS(=O)(=O)c1ccc(N2N=C(c3ccc(O)cc3)CC2c2ccccc2)cc1 (centres undefined),Ki,Carbonic anhydrase 1,0.317 µM
same,CC50,[4],39.3 µM
same,CC50,[5],39.3 µM
same,CC50,HSC-2,39.3 µM
same,CC50,[6],39.3 µM
same,CC50,Ca9-22,39.3 µM
same,Ki,Carbonic anhydrase 9 [7],0.0535 µM
same,Ki,Carbonic anhydrase 12,0.0062 µM
same,Ki,Carbonic anhydrase 2,0.412 µM
same,CC50,HSC-3,39.3 µM
NS(=O)(=O)c1ccc(N2N=C(c3ccc(O)cc3)CC2c2ccc(Br)cc2)cc1 (centres undefined),CC50,[4],39.3 µM
same,CC50,[5],39.3 µM
same,CC50,HSC-2,39.3 µM
same,CC50,[6],39.3 µM
same,CC50,Ca9-22,39.3 µM
same,Ki,Carbonic anhydrase 9 [7],0.0535 µM
same,Ki,Carbonic anhydrase 12,0.0062 µM
same,CC50,HSC-3,39.3 µM
COc1ccc(C2=CC(c3cc(C(C)C)c(OC)cc3C)N(C(=O)OC(C)C)N2C(=O)OC(C)C)cc1OC (centres undefined),IC50,Plasmodium falciparum,< 2 µM
COc1ccc(C2CC(c3cccc(Nc4ccnc5cc(Cl)ccc45)c3)=NN2c2ccccc2)cc1 (centres undefined),MIC50,Candida albicans [11],3.9 µg/mL
same,GI50,[12],< 1 µM
same,MIC50,Cryptococcus neoformans,3.9 µg/mL
NS(=O)(=O)c1ccc(C(=O)N2N=C(c3ccccc3)CC2c2ccc(Cl)cc2)cc1 (centres undefined),Ki,Carbonic anhydrase 1,0.0878 µM
same,Ki,Carbonic anhydrase 9 [10],0.0055 µM
same,Ki,Carbonic anhydrase 2,0.0317 µM
COc1ccc(C2CC(c3ccc(Cl)cc3)=NN2c2ccc(S(N)(=O)=O)cc2)c(OC)c1 (centres undefined),Ki,Acetylcholinesterase,0.0377 µM
